From ChEMBL document CHEMBL3044568, “Synthesis, analgesic, anti-inflammatory, and in vitro antimicrobial activities of some novel quinazolin-4(3H)-one derivatives” (Med Chem Res, 2013)
≈ marks a conversion by molar mass, not a printed value.

How the values were obtained:
[1] = tested on: Mus musculus; experiment: Analgesic activity in Mus musculus […] albino (mouse) at 10 mg/kg, po measured at 2 hr by tail flick test (reference value: 6 +/- 0.84%)
[2] = tested on: Rattus norvegicus; experiment: Anti-inflammatory activity in Rattus norvegicus Wistar (rat) assessed as protection against carrageenan-induced paw edema at 20 mg/kg, po measured at 3 hr by plethysmographic analysis (reference value: 4 +/- 0.75%); assay type: functional
[3] = tested on: Rattus norvegicus; experiment: Anti-inflammatory activity in Rattus norvegicus Wistar (rat) assessed as protection against carrageenan-induced paw edema at 20 mg/kg, po measured at 2 hr by plethysmographic analysis (reference value: 5 +/- 0.41%); assay type: functional
[4] = tested on: Rattus norvegicus; experiment: Anti-inflammatory activity in Rattus norvegicus Wistar (rat) assessed as protection against carrageenan-induced paw edema at 20 mg/kg, po measured at 30 min by plethysmographic analysis (reference value: 4 +/- 0.28%); assay type: functional
[5] = tested on: Staphylococcus epidermidis; experiment: Antibacterial activity against Staphylococcus epidermidis ATCC 155 assessed as growth inhibition after 24 hr by agar streak dilution method; assay type: functional; conditions: ATCC 155, 24 h
[6] = tested on: Klebsiella pneumoniae; experiment: Antibacterial activity against Klebsiella pneumoniae ATCC 11298 assessed as growth inhibition after 24 hr by agar streak dilution method; assay type: functional; conditions: ATCC 11298, 24 h
[7] = tested on: Mus musculus; experiment: Analgesic activity in Mus musculus […] albino (mouse) at 20 mg/kg, po measured at 3 hr by tail flick test (reference value: 3 +/- 0.41%)
[8] = tested on: Mus musculus; experiment: Analgesic activity in Mus musculus […] albino (mouse) at 10 mg/kg, po measured at 3 hr by tail flick test (reference value: 3 +/- 0.41%)
[9] = tested on: Mus musculus; experiment: Analgesic activity in Mus musculus […] albino (mouse) at 20 mg/kg, po measured at 30 min by tail flick test (reference value: 4 +/- 0.72%)
[10] = tested on: Rattus norvegicus; experiment: Anti-inflammatory activity in Rattus norvegicus Wistar (rat) assessed as protection against carrageenan-induced paw edema at 10 mg/kg, po measured at 2 hr by plethysmographic analysis (reference value: 5 +/- 0.41%); assay type: functional
[11] = tested on: Rattus norvegicus; experiment: Anti-inflammatory activity in Rattus norvegicus Wistar (rat) assessed as protection against carrageenan-induced paw edema at 20 mg/kg, po measured at 1 hr by plethysmographic analysis (reference value: 6 +/- 0.63%); assay type: functional
[12] = tested on: Rattus norvegicus; experiment: Anti-inflammatory activity in Rattus norvegicus Wistar (rat) assessed as protection against carrageenan-induced paw edema at 10 mg/kg, po measured at 30 min by plethysmographic analysis (reference value: 4 +/- 0.28%); assay type: functional
[13] = tested on: Rattus norvegicus; experiment: Ulcerogenecity in Rattus norvegicus Wistar albino (rat) stomach assessed as ulcer index administered 20 mg/kg, ip qd for 3 days measured on day 4 relative to aspirin; assay type: ADME, organism-based; parameters: dose 20 mg/kg, route intraperitoneal; conditions: in vivo, 72 h
[14] = tested on: Rattus norvegicus; experiment: Ulcerogenecity in Rattus norvegicus Wistar albino (rat) stomach assessed as ulcer index administered 20 mg/kg, ip qd for 3 days measured on day 4 (reference value: 0.13 +/- 0.05 no unit); assay type: ADME, organism-based; parameters: dose 20 mg/kg, route intraperitoneal; conditions: in vivo, 72 h
[15] = tested on: Rattus norvegicus; experiment: Anti-inflammatory activity in Rattus norvegicus Wistar (rat) assessed as protection against carrageenan-induced paw edema at 10 mg/kg, po measured at 1 hr by plethysmographic analysis (reference value: 6 +/- 0.63%); assay type: functional
[16] = tested on: Staphylococcus aureus; experiment: Antibacterial activity against Staphylococcus aureus ATCC 9144 assessed as growth inhibition after 24 hr by agar streak dilution method; assay type: functional; conditions: ATCC 9144, 24 h
[17] = tested on: Escherichia coli; experiment: Antibacterial activity against Escherichia coli ATCC 25922 assessed as growth inhibition after 24 hr by agar streak dilution method; assay type: functional; conditions: ATCC 25922, 24 h
[18] = tested on: Mus musculus; experiment: Analgesic activity in Mus musculus […] albino (mouse) at 10 mg/kg, po measured at 1 hr by tail flick test (reference value: 5 +/- 0.49%)
[19] = tested on: Mus musculus; experiment: Analgesic activity in Mus musculus […] albino (mouse) at 20 mg/kg, po measured at 1 hr by tail flick test (reference value: 5 +/- 0.49%)
[20] = tested on: Micrococcus luteus; experiment: Antibacterial activity against Micrococcus luteus ATCC 4698 assessed as growth inhibition after 24 hr by agar streak dilution method; assay type: functional; conditions: ATCC 4698, 24 h
[21] = tested on: Rattus norvegicus; experiment: Ulcerogenecity in Rattus norvegicus Wistar albino (rat) stomach assessed as ulcer index administered 20 mg/kg, ip qd for 3 days measured on day 4 relative to diclofenac; assay type: ADME, organism-based; parameters: dose 20 mg/kg, route intraperitoneal; conditions: in vivo, 72 h
[22] = tested on: Bacillus cereus; experiment: Antibacterial activity against Bacillus cereus ATCC 11778 assessed as growth inhibition after 24 hr by agar streak dilution method; assay type: functional; conditions: ATCC 11778, 24 h
[23] = tested on: Aspergillus fumigatus; experiment: Antifungal activity against Aspergillus fumigatus ATCC 46645 assessed as growth inhibition after 48 hr by agar streak dilution method; assay type: functional; conditions: ATCC 46645, 48 h
[24] = tested on: Rattus norvegicus; experiment: Anti-inflammatory activity in Rattus norvegicus Wistar (rat) assessed as protection against carrageenan-induced paw edema at 10 mg/kg, po measured at 3 hr by plethysmographic analysis (reference value: 4 +/- 0.75%); assay type: functional
[25] = tested on: Pseudomonas aeruginosa; experiment: Antibacterial activity against Pseudomonas aeruginosa […] assessed as growth inhibition after 24 hr by agar streak dilution method; assay type: functional
[26] = tested on: Mus musculus; experiment: Analgesic activity in Mus musculus […] albino (mouse) at 20 mg/kg, po measured at 2 hr by tail flick test (reference value: 6 +/- 0.84%)
[27] = tested on: Mus musculus; experiment: Analgesic activity in Mus musculus […] albino (mouse) at 10 mg/kg, po measured at 30 min by tail flick test (reference value: 4 +/- 0.72%)
[28] = tested on: Aspergillus niger; experiment: Antifungal activity against Aspergillus niger ATCC 9029 assessed as growth inhibition after 48 hr by agar streak dilution method; assay type: functional; conditions: ATCC 9029, 48 h

Cc1nc2ccccc2c(=O)n1-c1ccc(NC(=O)CN/N=C\c2c[nH]c3ccccc23)cc1
Activity [1]: 29%
Activity [2]: 32%
Activity [3]: 41%
Activity [4]: 28%
MIC [5]: 31.2 µg/mL (≈ 69.4 µM)
MIC [6]: 15.6 µg/mL (≈ 34.7 µM)
Activity [7]: 20%
Activity [8]: 18%
Activity [9]: 30%
Activity [10]: 29%
Activity [11]: 36%
Activity [12]: 20%
UI [13]: 31%
UI [14]: 0.72 no unit
Activity [15]: 23%
MIC [16]: 62.5 µg/mL (≈ 139 µM)
MIC [17]: 62.5 µg/mL (≈ 139 µM)
Activity [18]: 25%
Activity [19]: 35%
MIC [20]: 31.2 µg/mL (≈ 69.4 µM)
UI [21]: 34%
MIC [22]: 31.2 µg/mL (≈ 69.4 µM)
MIC [23]: 62.5 µg/mL (≈ 139 µM)
Activity [24]: 21%
MIC [25]: 15.6 µg/mL (≈ 34.7 µM)
Activity [26]: 41%
Activity [27]: 19%
MIC [28]: 31.2 µg/mL (≈ 69.4 µM)

COc1ccc(/C=N/NCC(=O)Nc2ccc(-n3c(C)nc4ccccc4c3=O)cc2)cc1
Activity [1]: 35%
Activity [2]: 30%
Activity [3]: 42%
Activity [4]: 31%
MIC [5]: 62.5 µg/mL (≈ 142 µM)
MIC [6]: 31.2 µg/mL (≈ 70.8 µM)
Activity [7]: 28%
Activity [8]: 23%
Activity [9]: 35%
Activity [10]: 29%
Activity [11]: 37%
Activity [12]: 22%
UI [13]: 51%
UI [14]: 0.86 no unit
Activity [15]: 25%
MIC [16]: 125 µg/mL (≈ 283 µM)
MIC [17]: 125 µg/mL (≈ 283 µM)
Activity [18]: 32%
Activity [19]: 40%
MIC [20]: 62.5 µg/mL (≈ 142 µM)
UI [21]: 51%
MIC [22]: 62.5 µg/mL (≈ 142 µM)
MIC [23]: 62.5 µg/mL (≈ 142 µM)
Activity [24]: 19%
MIC [25]: 62.5 µg/mL (≈ 142 µM)
Activity [26]: 48%
Activity [27]: 24%
MIC [28]: 62.5 µg/mL (≈ 142 µM)

Cc1nc2ccccc2c(=O)n1-c1ccc(NC(=O)CN/N=C/c2ccc(O)cc2)cc1
Activity [1]: 34%
Activity [2]: 29%
Activity [3]: 43%
Activity [4]: 30%
MIC [5]: 125 µg/mL (≈ 292 µM)
MIC [6]: 125 µg/mL (≈ 292 µM)
Activity [7]: 26%
Activity [8]: 20%
Activity [9]: 36%
Activity [10]: 28%
Activity [11]: 39%
Activity [12]: 21%
UI [13]: 31%
UI [14]: 0.82 no unit
Activity [15]: 25%
MIC [16]: 125 µg/mL (≈ 292 µM)
MIC [17]: 125 µg/mL (≈ 292 µM)
Activity [18]: 30%
Activity [19]: 43%
MIC [20]: 62.5 µg/mL (≈ 146 µM)
UI [21]: 34%
MIC [22]: 125 µg/mL (≈ 292 µM)
MIC [23]: 62.5 µg/mL (≈ 146 µM)
Activity [24]: 22%
MIC [25]: 125 µg/mL (≈ 292 µM)
Activity [26]: 47%
Activity [27]: 23%
MIC [28]: 125 µg/mL (≈ 292 µM)

Cc1nc2ccccc2c(=O)n1-c1ccc(NC(=O)CN/N=C/c2ccccc2)cc1
Activity [1]: 41%
Activity [2]: 32%
Activity [3]: 51%
Activity [4]: 35%
MIC [5]: 31.2 µg/mL (≈ 75.9 µM)
MIC [6]: 15.6 µg/mL (≈ 38 µM)
Activity [7]: 32%
Activity [8]: 29%
Activity [9]: 42%
Activity [10]: 34%
Activity [11]: 46%
Activity [12]: 24%
UI [13]: 31%
UI [14]: 0.7 no unit
Activity [15]: 29%
MIC [16]: 31.2 µg/mL (≈ 75.9 µM)
MIC [17]: 62.5 µg/mL (≈ 152 µM)
Activity [18]: 35%
Activity [19]: 50%
MIC [20]: 62.5 µg/mL (≈ 152 µM)
UI [21]: 34%
MIC [22]: 31.2 µg/mL (≈ 75.9 µM)
MIC [23]: 31.2 µg/mL (≈ 75.9 µM)
Activity [24]: 28%
MIC [25]: 31.2 µg/mL (≈ 75.9 µM)
Activity [26]: 57%
Activity [27]: 30%
MIC [28]: 31.2 µg/mL (≈ 75.9 µM)

Cc1nc2ccccc2c(=O)n1-c1ccc(NC(=O)CN/N=C/c2ccc(Cl)cc2)cc1
Activity [1]: 48%
Activity [2]: 42%
Activity [3]: 59%
Activity [4]: 43%
MIC [5]: 15.6 µg/mL (≈ 35 µM)
MIC [6]: 7.81 µg/mL (≈ 17.5 µM)
Activity [7]: 40%
Activity [8]: 35%
Activity [9]: 50%
Activity [10]: 43%
Activity [11]: 52%
Activity [12]: 31%
UI [13]: 31%
UI [14]: 0.59 no unit
Activity [15]: 37%
MIC [16]: 31.2 µg/mL (≈ 70.1 µM)
MIC [17]: 31.2 µg/mL (≈ 70.1 µM)
Activity [18]: 45%
Activity [19]: 58%
MIC [20]: 7.81 µg/mL (≈ 17.5 µM)
UI [21]: 34%
MIC [22]: 15.6 µg/mL (≈ 35 µM)
MIC [23]: 7.81 µg/mL (≈ 17.5 µM)
Activity [24]: 34%
MIC [25]: 15.6 µg/mL (≈ 35 µM)
Activity [26]: 64%
Activity [27]: 36%
MIC [28]: 15.6 µg/mL (≈ 35 µM)
